Measured values as given in patent US12146004B2, “Polymyxin compounds and uses thereof” (priority 2014, dated 2024).
Values after ≈ are worked out from the molar mass of the structure shown. Read-outs that look alike come from different tables or passages of the source. Numbered stars: 1 amine (or outer) side, 2 acyl side, 3 side chain; on linkers, the order of the positions; unused ones are H or OH. Bridge positions count the residues as written; N and C are the ends. Square brackets hold non-standard residues; d marks the D form. Peptide text beside a SMILES is read from it. * marks the point of attachment. ξ: configuration not given here. X11 = O=C([C@@H](Cc1ccc(-c2ccncc2)cc1)N[*:1])[*:2]; dBip = N[C@H](Cc1ccc(-c2ccccc2)cc1)C(=O)O; Octanoyl(6-Me) = CCC(C)CCCCC(=O)*; X3 = CCCCCCCCN1CCNC[C@H]1C(=O)*; dCha = N[C@H](CC1CCCCC1)C(=O)O; Thr(3ξ) = CC(O)[C@H](N)C(=O)O; Dab = NCC[C@H](N)C(=O)O; X2 = CC(C)CC(CN)C(=O)*

Experiments:
Type in all cases: cell-based
Acinetobacter baumannii = system: Acinetobacter baumannii
Outline: (§1)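 MIC (μg/mL) from susceptibility testing; up to nine strains per species, incl. resistant and Polymyxin-elevated-MIC strains.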

Escherichia coli = system: Escherichia coli
Outline: as §1

Klebsiella pneumoniae = system: Klebsiella pneumoniae
Outline: as §1

Pseudomonas aeruginosa = system: Pseudomonas aeruginosa
Outline: as §1

HK-2 cells = system: HK-2 cells
Source text: Values are reported relative to Polymyxin B.

| SMILES | MIC A. baumanii 053 (Acinetobacter baumannii) [µg/mL] | MIC A. baumanii 056 (Acinetobacter baumannii) [µg/mL] | MIC A. baumanii ATCC BAA-747 (Acinetobacter baumannii) [µg/mL] | MIC A. baumanii NCTC 13424 (Acinetobacter baumannii) [µg/mL] | MIC E. coli 058 (Escherichia coli) [µg/mL] | MIC E. coli 061 (Escherichia coli) [µg/mL] | MIC E. coli ATCC 25922 (Escherichia coli) [µg/mL] | MIC E. coli NCTC 9001 (Escherichia coli) [µg/mL] | MIC K. pneumoniae 063 (Klebsiella pneumoniae) [µg/mL] | MIC K. pneumoniae 065 (Klebsiella pneumoniae) [µg/mL] | MIC P. aeruginosa 068 (Pseudomonas aeruginosa) [µg/mL] | MIC P. aeruginosa 070 (Pseudomonas aeruginosa) [µg/mL] | MIC P. aeruginosa ATCC 27853 (Pseudomonas aeruginosa) [µg/mL] | HK-2 IC50 (HK-2 cells) [µg/mL] | MIC E. coli 060 (Escherichia coli) [µg/mL] | MIC K. pneumoniae 062 (Klebsiella pneumoniae) [µg/mL] | MIC K. pneumoniae 064 (Klebsiella pneumoniae) [µg/mL] | MIC K. pneumoniae 066 (Klebsiella pneumoniae) [µg/mL] | MIC K. pneumoniae 067 (Klebsiella pneumoniae) [µg/mL] | MIC K. pneumoniae ATCC 4352 (Klebsiella pneumoniae) [µg/mL] | also measured |
| --- | --- | --- | --- | --- | --- | --- | --- | --- | --- | --- | --- | --- | --- | --- | --- | --- | --- | --- | --- | --- | --- |
| CC(C)C[C@@H]1NC(=O)[C@@H](CC2CCCCC2)NC(=O)[C@H](CCN)NC(=O)[C@@H](NC(=O)[C@H](CN)NC(=O)[C@@H](NC(=O)C(CCN)c2ccccc2)C(C)O)CCNC(=O)[C@H]([C@@H](C)O)NC(=O)[C@H](CCN)NC(=O)[C@H](CCN)NC1=O (single isomer, unassigned; isomer 2) [Example 38, 4-amino-2-phenylbutanoyl L-Thr-L-Dap-polymyxin [D-cyclohexylalanine]-6 heptapeptide. isomer 2] | 32 (≈ 28.7 µM) | 8 (≈ 7.17 µM) | 0.06 (≈ 0.0537 µM) | 0.03 (≈ 0.0269 µM) | 2 (≈ 1.79 µM) | 16 (≈ 14.3 µM) | 0.06 (≈ 0.0537 µM) | 0.06 (≈ 0.0537 µM) | 32 (≈ 28.7 µM) | 1 (≈ 0.896 µM) | 4 (≈ 3.58 µM) | 4 (≈ 3.58 µM) | 0.25 (≈ 0.224 µM) | 255 |  |  |  |  |  |  | MIC K. pneumoniae ATCC 13882 (Klebsiella pneumoniae): 0.125 µg/mL (≈ 0.112 µM); MIC P. aeruginosa CCUG 59347 (Pseudomonas aeruginosa): 0.25 µg/mL (≈ 0.224 µM) |
| CCCCC(CCN)C(=O)N[C@H](C(=O)N[C@@H](CN)C(=O)N[C@H]1CCNC(=O)[C@H]([C@@H](C)O)NC(=O)[C@H](CCN)NC(=O)[C@H](CCN)NC(=O)[C@H](CC(C)C)NC(=O)[C@@H](CC2CCCCC2)NC(=O)[C@H](CCN)NC1=O)[C@@H](C)O (single isomer, unassigned; isomer 2) [Example 41, 2-(2-aminoethyl) hexanoyl L-Thr-L-Dap-polymyxin [D-cyclohexylalanine]-6 heptapeptide. Isomer 2] | >32 | 32 (≈ 29.2 µM) | 0.06 (≈ 0.0547 µM) | 0.06 (≈ 0.0547 µM) | 4 (≈ 3.65 µM) | 8 (≈ 7.3 µM) | 0.125 (≈ 0.114 µM) | 0.06 (≈ 0.0547 µM) | 16 (≈ 14.6 µM) | 1.5 (≈ 1.37 µM) | 4 (≈ 3.65 µM) | 4 (≈ 3.65 µM) | 0.5 (≈ 0.456 µM) | 206 |  |  |  |  |  |  | MIC K. pneumoniae ATCC 13882 (Klebsiella pneumoniae): 0.125 µg/mL (≈ 0.114 µM); MIC P. aeruginosa CCUG 59347 (Pseudomonas aeruginosa): 0.5 µg/mL (≈ 0.456 µM); cytotoxicity (HK-2 cells): significantly lower cytotoxicity compared with C6 |
| CC(C)C[C@@H]1NC(=O)[C@@H](CC2CCCCC2)NC(=O)[C@H](CCN)NC(=O)[C@@H](NC(=O)[C@H](CCN)NC(=O)[C@@H](NC(=O)CC(CN)Cc2ccccc2)[C@@H](C)O)CCNC(=O)[C@H]([C@@H](C)O)NC(=O)[C@H](CCN)NC(=O)[C@H](CCN)NC1=O (single isomer, unassigned; isomer 2) [Example 67, 4-amino-3-benzylbutanoyl polymyxin [D-cyclohexylalanine]-6 nonapeptide isomer 2] |  |  |  |  |  |  |  |  |  |  |  |  |  |  |  |  |  |  |  |  | MIC A. baumanii 053 (Acinetobacter baumannii; strain 053): 64 µg/mL (≈ 55.9 µM); MIC A. baumanii 056 (Acinetobacter baumannii; strain 056): 16 µg/mL (≈ 14 µM); MIC A. baumanii ATCC BAA-747 (Acinetobacter baumannii; strain ATCC BAA-747): 0.25 µg/mL (≈ 0.218 µM); MIC A. baumanii NCTC 13424 (Acinetobacter baumannii; strain NCTC 13424): 0.25 µg/mL (≈ 0.218 µM); MIC E. coli 058 (Escherichia coli; strain 058): 4 µg/mL (≈ 3.5 µM); MIC E. coli 061 (Escherichia coli; strain 061): 16 µg/mL (≈ 14 µM); MIC E. coli ATCC 25922 (Escherichia coli; strain ATCC 25922): 0.125 µg/mL (≈ 0.109 µM); MIC E. coli NCTC 9001 (Escherichia coli; strain NCTC 9001): 0.06 µg/mL (≈ 0.0524 µM); MIC K. pneumoniae 063 (Klebsiella pneumoniae; strain 063): 32 µg/mL (≈ 28 µM); MIC K. pneumoniae 065 (Klebsiella pneumoniae; strain 065): 1 µg/mL (≈ 0.874 µM); MIC K. pneumoniae ATCC 13882 (Klebsiella pneumoniae; strain ATCC 13882): 0.25 µg/mL (≈ 0.218 µM); MIC P. aeruginosa 068 (Pseudomonas aeruginosa; strain 068): 8 µg/mL (≈ 6.99 µM); MIC P. aeruginosa 070 (Pseudomonas aeruginosa; strain 070): 16 µg/mL (≈ 14 µM); MIC P. aeruginosa ATCC 27853 (Pseudomonas aeruginosa; strain ATCC 27853): 0.25 µg/mL (≈ 0.218 µM); MIC P. aeruginosa CCUG 59347 (Pseudomonas aeruginosa; strain CCUG 59347): 0.25 µg/mL (≈ 0.218 µM); HK-2 IC50 (HK-2 cells; HK-2 cells): 60 µg/mL |
| CCC(C)CCCCC(=O)N[C@@H](CCN)C(=O)N[C@H](C(=O)N[C@@H](CCN)C(=O)N[C@H]1CCNC(=O)[C@H]([C@@H](C)O)NC(=O)[C@H](CCN)NC(=O)[C@H](CCN)NC(=O)[C@H](CC(C)C)NC(=O)[C@@H](Cc2ccc(-c3ccncc3)cc2)NC(=O)[C@H](CCN)NC1=O)C(C)O (some centres unmarked) [Example 1] ({Octanoyl(6-Me)}-[Dab][Thr(3ξ)][Dab][Dab][Dab][X11]L[Dab][Dab]T; lactam 4-C) | >32 | >32 | 1 (≈ 0.781 µM) |  |  | 32 (≈ 25 µM) | 1 (≈ 0.781 µM) |  | >64 |  | 32 (≈ 25 µM) | >32 | 1 (≈ 0.781 µM) | 7 | 8 (≈ 6.25 µM) | >64 | 32 (≈ 25 µM) | 32 (≈ 25 µM) | >32 | 1 (≈ 0.781 µM) |  |
| CCCCCCCCN1CCNC[C@H]1C(=O)N[C@H](C(=O)N[C@@H](CCN)C(=O)N[C@H]1CCNC(=O)[C@H]([C@@H](C)O)NC(=O)[C@H](CCN)NC(=O)[C@H](CCN)NC(=O)[C@H](CC(C)C)NC(=O)[C@@H](Cc2ccc(-c3ccccc3)cc2)NC(=O)[C@H](CCN)NC1=O)C(C)O (some centres unmarked) [Example 6] (X3-[Thr(3ξ)][Dab][Dab][Dab][dBip]L[Dab][Dab]T; lactam 3-C) | 8 (≈ 6.33 µM) | 4 (≈ 3.17 µM) | 1 (≈ 0.791 µM) |  | 1 (≈ 0.791 µM) | 2 (≈ 1.58 µM) | 1 (≈ 0.791 µM) |  | 4 (≈ 3.17 µM) | 1 (≈ 0.791 µM) | 2 (≈ 1.58 µM) | 2 (≈ 1.58 µM) |  | 3 | 1 (≈ 0.791 µM) | 4 (≈ 3.17 µM) | 2 (≈ 1.58 µM) | 0.5 (≈ 0.396 µM) | 4 (≈ 3.17 µM) | 1 (≈ 0.791 µM) | MIC E. coli 059 (Escherichia coli): 0.5 µg/mL (≈ 0.396 µM) |
| CC(C)CC(CN)C(=O)N[C@H](C(=O)N[C@@H](CCN)C(=O)N[C@H]1CCNC(=O)[C@H]([C@@H](C)O)NC(=O)[C@H](CCN)NC(=O)[C@H](CCN)NC(=O)[C@H](CC(C)C)NC(=O)[C@@H](CC2CCCCC2)NC(=O)[C@H](CCN)NC1=O)C(C)O (some centres unmarked) [Example 21] (X2-[Thr(3ξ)][Dab][Dab][Dab][dCha]L[Dab][Dab]T; lactam 3-C) | >64 | 64 (≈ 58.4 µM) | 0.5 (≈ 0.456 µM) |  | 8 (≈ 7.3 µM) | 32 (≈ 29.2 µM) | 0.25 (≈ 0.228 µM) |  | 64 (≈ 58.4 µM) |  | 32 (≈ 29.2 µM) | 32 (≈ 29.2 µM) | 0.5 (≈ 0.456 µM) | 83 | 8 (≈ 7.3 µM) | 16 (≈ 14.6 µM) | 8 (≈ 7.3 µM) | 16 (≈ 14.6 µM) | >64 | 0.25 (≈ 0.228 µM) | MIC E. coli 059 (Escherichia coli): 16 µg/mL (≈ 14.6 µM) |
